Results published in ChEMBL document CHEMBL1201862, “PubChem BioAssay data set” (2004).
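These data come from cells grown in 96-well plates and exposed to compound for 48 hours at five concentrations. GI50: concentration for 50% inhibition of growth.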 Calls of active or inactive are those of the source. No stated cut-off is given here; in the data, active = GI50 up to about 1.1 µM and inactive = higher.

Experiments:
Test in all cases: NCI tumour cell line growth inhibition, 48 h
A498 = test system: A498
UO-31 = test system: UO-31
CAKI-1 = test system: CAKI-1
Malme-3M = test system: Malme-3M
U-251 = test system: U-251
SF-268 = test system: SF-268
HOP-62 = test system: HOP-62
COLO 205 = test system: COLO 205
DLD-1 = test system: DLD-1
SK-OV-3 = test system: SK-OV-3
MOLT-4 = test system: MOLT-4
OVCAR-5 = test system: OVCAR-5
SK-MEL-2 = test system: SK-MEL-2
SK-MEL-28 = test system: SK-MEL-28
DMS-273 = test system: DMS-273
NCI-H23 = test system: NCI-H23
CCRF-CEM = test system: CCRF-CEM
HOP-92 = test system: HOP-92
XF498 = test system: XF498
HCT-116 = test system: HCT-116
RXF 393 = test system: RXF 393
HL-60 = test system: HL-60
EKVX = test system: EKVX
SK-MEL-5 = test system: SK-MEL-5
NCI-H460 = test system: NCI-H460
OVCAR-3 = test system: OVCAR-3
LOX IMVI = test system: LOX IMVI
UACC-257 = test system: UACC-257
HOP-18 = test system: HOP-18
NCI-H522 = test system: NCI-H522
KM-20L2 = test system: KM-20L2
HCC 2998 = test system: HCC 2998
RPMI-8226 = test system: RPMI-8226
SF-539 = test system: SF-539
OVCAR-8 = test system: OVCAR-8
SN12C = test system: SN12C
SF-295 = test system: SF-295
A549 = test system: A549
HT-29 = test system: HT-29
SNB-19 = test system: SNB-19
SNB-78 = test system: SNB-78
M19-MEL = test system: M19-MEL
DMS-114 = test system: DMS-114
UACC-62 = test system: UACC-62
NCI-H226 = test system: NCI-H226
SW-620 = test system: SW-620
MCF7 = test system: MCF7
HCT-15 = test system: HCT-15
KM12 = test system: KM12
IGROV-1 = test system: IGROV-1
OVCAR-4 = test system: OVCAR-4
NCI/ADR-RES = test system: NCI/ADR-RES
SNB-75 = test system: SNB-75
K562 = test system: K562
SR = test system: SR
ACHN = test system: ACHN
LXFL 529 = test system: LXFL 529
TK-10 = test system: TK-10
M14 = test system: M14
786-0 = test system: 786-0

With `CC[C@](C)(O)C(=O)O[C@H]1C(=O)O[C@@H]2C[C@H]3C(C)=C[C@H](O)[C@@H](O)[C@]3(C)[C@H]3[C@@]4(O)OC[C@]32[C@@H]1[C@@H](C)[C@H]4O` the GI50 (A498) was 30.2 µM (inactive), the GI50 (UO-31) was 96.2 µM (inactive) and the GI50 (CAKI-1) was 27.5 µM (inactive). For the same compound, the GI50 (Malme-3M) was 8.93 µM (inactive), the GI50 (U-251) was 12 µM (inactive) and the GI50 (SF-268) was 52.5 µM (inactive). The GI50 (HOP-62) was 35.1 µM (inactive), the GI50 (COLO 205) was 32.7 µM (inactive) and the GI50 (DLD-1) was 6.11 µM (inactive). For the same compound, the GI50 (SK-OV-3) was 71.9 µM (inactive), the GI50 (MOLT-4) was 6.93 µM (inactive) and the GI50 (OVCAR-5) was 104 µM (inactive). For the same compound, the GI50 (SK-MEL-2) was 37.7 µM (inactive), the GI50 (SK-MEL-28) was 17.3 µM (inactive) and the GI50 (DMS-273) was 17.9 µM (inactive). The GI50 (NCI-H23) was 5.78 µM (inactive), the GI50 (CCRF-CEM) was 4.19 µM (inactive) and the GI50 (HOP-92) was 4.28 µM (inactive). For the same compound, the GI50 (XF498) was 11.9 µM (inactive), the GI50 (HCT-116) was 14.7 µM (inactive) and the GI50 (RXF 393) was 0.631 µM (active). For the same compound, the GI50 (HL-60) was 7.85 µM (inactive), the GI50 (EKVX) was 9.33 µM (inactive) and the GI50 (SK-MEL-5) was 9.48 µM (inactive). For the same compound, the GI50 (NCI-H460) was 9.73 µM (inactive), the GI50 (OVCAR-3) was 13.5 µM (inactive) and the GI50 (LOX IMVI) was 14.5 µM (inactive). For the same compound, the GI50 (UACC-257) was 47.8 µM (inactive), the GI50 (HOP-18) was 59.7 µM (inactive) and the GI50 (NCI-H522) was 3.58 µM (inactive). The GI50 (KM-20L2) was 47.1 µM (inactive), the GI50 (HCC 2998) was 14.1 µM (inactive) and the GI50 (RPMI-8226) was 4.34 µM (inactive). The GI50 (SF-539) was 12.5 µM (inactive), the GI50 (OVCAR-8) was 34 µM (inactive) and the GI50 (SN12C) was 73.5 µM (inactive). For the same compound, the GI50 (SF-295) was 46.5 µM (inactive), the GI50 (A549) was 61.8 µM (inactive) and the GI50 (HT-29) was 29.9 µM (inactive). The GI50 (SNB-19) was 9.79 µM (inactive), the GI50 (SNB-78) was 29.2 µM (inactive) and the GI50 (M19-MEL) was 11 µM (inactive). For the same compound, the GI50 (DMS-114) was 3.68 µM (inactive), the GI50 (UACC-62) was 19.3 µM (inactive) and the GI50 (NCI-H226) was 17.7 µM (inactive). For the same compound, the GI50 (SW-620) was 12.4 µM (inactive), the GI50 (MCF7) was 11.6 µM (inactive) and the GI50 (HCT-15) was 58.2 µM. For the same compound, the GI50 (KM12) was 21.6 µM (inactive), the GI50 (IGROV-1) was 7.19 µM (inactive) and the GI50 (OVCAR-4) was 58.6 µM (inactive). For the same compound, the GI50 (NCI/ADR-RES) was > 205 µM (inactive), the GI50 (SNB-75) was 24.2 µM (inactive) and the GI50 (K562) was 8.3 µM (inactive).

With `O=C(/C=C/c1cccc([N+](=O)[O-])c1)c1cccnc1` the GI50 (A498) was > 43.6 µM (inactive), the GI50 (UO-31) was > 45.1 µM (inactive) and the GI50 (CAKI-1) was > 46.5 µM (inactive). The GI50 (Malme-3M) was > 89.9 µM (inactive), the GI50 (U-251) was 20.6 µM (inactive) and the GI50 (SF-268) was 33.3 µM (inactive). The GI50 (HOP-62) was > 100 µM (inactive), the GI50 (COLO 205) was 35.6 µM (inactive) and the GI50 (DLD-1) was 20.3 µM (inactive). For the same compound, the GI50 (SK-OV-3) was > 100 µM (inactive), the GI50 (SR) was 22.7 µM (inactive) and the GI50 (ACHN) was 71.1 µM (inactive). The GI50 (MOLT-4) was 26.4 µM (inactive), the GI50 (LXFL 529) was 21 µM (inactive) and the GI50 (OVCAR-5) was > 100 µM (inactive). For the same compound, the GI50 (TK-10) was > 100 µM (inactive), the GI50 (SK-MEL-2) was > 100 µM (inactive) and the GI50 (SK-MEL-28) was 23.6 µM (inactive). The GI50 (DMS-273) was 25.3 µM (inactive), the GI50 (NCI-H23) was 17.7 µM (inactive) and the GI50 (CCRF-CEM) was 24.6 µM (inactive). For the same compound, the GI50 (HOP-92) was 74 µM (inactive), the GI50 (XF498) was 35.8 µM (inactive) and the GI50 (HCT-116) was 16.7 µM (inactive). For the same compound, the GI50 (RXF 393) was 18.1 µM (inactive), the GI50 (HL-60) was 20.6 µM (inactive) and the GI50 (EKVX) was > 100 µM (inactive). For the same compound, the GI50 (SK-MEL-5) was 14.7 µM (inactive), the GI50 (NCI-H460) was 50.7 µM (inactive) and the GI50 (OVCAR-3) was 27.5 µM (inactive). For the same compound, the GI50 (M14) was 13.7 µM (inactive), the GI50 (LOX IMVI) was 21.2 µM (inactive) and the GI50 (UACC-257) was 23.9 µM (inactive). For the same compound, the GI50 (HOP-18) was 2.06 µM (inactive), the GI50 (NCI-H522) was 7.98 µM (inactive) and the GI50 (KM-20L2) was 27.7 µM (inactive). For the same compound, the GI50 (HCC 2998) was 36.5 µM (inactive), the GI50 (RPMI-8226) was 19.4 µM (inactive) and the GI50 (SF-539) was 21.1 µM (inactive). For the same compound, the GI50 (OVCAR-8) was 34.6 µM (inactive), the GI50 (SN12C) was 26.5 µM (inactive) and the GI50 (SF-295) was 46 µM (inactive). For the same compound, the GI50 (A549) was > 60 µM (inactive), the GI50 (HT-29) was 20.2 µM (inactive) and the GI50 (SNB-19) was > 53.3 µM (inactive). For the same compound, the GI50 (SNB-78) was 41.2 µM (inactive), the GI50 (M19-MEL) was 31.2 µM (inactive) and the GI50 (DMS-114) was 22.6 µM (inactive). For the same compound, the GI50 (UACC-62) was 30.2 µM (inactive), the GI50 (NCI-H226) was > 52.6 µM (inactive) and the GI50 (SW-620) was 19.4 µM (inactive). The GI50 (HCT-15) was 43.5 µM, the GI50 (KM12) was 19.9 µM (inactive) and the GI50 (IGROV-1) was 28.7 µM (inactive). For the same compound, the GI50 (OVCAR-4) was > 91 µM (inactive), the GI50 (786-0) was 16.5 µM (inactive) and the GI50 (SNB-75) was > 52.8 µM (inactive). The GI50 (K562) was 29.4 µM (inactive).
